Data published in patent US9562082B2, “Production of glycoproteins with low N-glycolylneuraminic acid (Neu5Gc) content” (LEK Pharmaceuticals D.D., priority 2009, dated 2017).

Key:
CMP-Neu5Ac hydroxylase = biological target: T1, CMP-Neu5Ac hydroxylase (Mus musculus, UniProt Q61419); design: concentration or dose not given beside the values; conditions: in vitro; cited from earlier work
T1 sequence (Q61419 5-577): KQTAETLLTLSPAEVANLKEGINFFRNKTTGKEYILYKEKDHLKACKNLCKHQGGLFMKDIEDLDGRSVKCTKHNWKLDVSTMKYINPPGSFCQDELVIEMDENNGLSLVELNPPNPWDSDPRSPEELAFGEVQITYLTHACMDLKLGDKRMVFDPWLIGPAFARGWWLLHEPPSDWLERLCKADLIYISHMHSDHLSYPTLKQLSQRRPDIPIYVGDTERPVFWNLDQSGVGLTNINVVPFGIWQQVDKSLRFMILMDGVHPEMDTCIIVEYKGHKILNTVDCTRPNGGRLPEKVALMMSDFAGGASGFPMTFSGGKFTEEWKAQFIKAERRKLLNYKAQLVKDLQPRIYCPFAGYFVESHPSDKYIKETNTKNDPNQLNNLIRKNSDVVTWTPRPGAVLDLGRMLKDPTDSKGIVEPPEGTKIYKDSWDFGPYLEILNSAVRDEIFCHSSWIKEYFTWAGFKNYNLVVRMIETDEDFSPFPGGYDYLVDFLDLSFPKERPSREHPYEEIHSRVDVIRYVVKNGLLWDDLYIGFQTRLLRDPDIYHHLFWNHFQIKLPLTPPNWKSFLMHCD

chickens = conditions: rhEPO 1% Neu5Gc, fetuin 7% Neu5Gc, GM3 all Neu5Ac converted into Neu5Gc; cited from earlier work
Recombinant CHO cells = test: Neu5Gc content of glycoprotein secreted by CHO cells cultivated with medium additives (RP-HPLC of DMB-labelled sialic acids); format: cell-based, Chinese hamster; conditions: NAcMan 5 mM in fermentation medium, darbepoetin alfa
Source text: Recombinant CHO cells expressing high titres of the glycosylated human glycoproteins were cultivated in suspension culture using rich in-house standard medium without additives according to the invention. After 2 weeks of passages, the cells were first harvested and subsequently inoculated into the same medium, however, supplemented with a range of DMSO concentrations from 0.25% to 1.50% (w/v). The effect of DMSO on growth, productivity, degree of sialylation, and Neu5Gc content was studied.
“One factor at the time”-experiments with different DMSO concentrations at 37° C. and 33° C., respectively, were performed at first in an attempt to determine the DMSO concentration and temperature which are best to minimise the Neu5Gc content on the glycoproteins secreted. To study the interaction between the parameters (i) DMSO concentration, (ii) time of DMSO addition, and (iii) time of the temperature shift (from 37° C. to 33° C.), further experiments were performed with the Design-Expert/Design-Ease programme (Stat-Ease, Inc., Minneapolis, Minn., USA) using the response surface method. Parameters (i), (ii), and (iii) were chosen as numeric factors and the axial points were set slightly out of already known ranges in order to cover a wide design space. One replicate on axial points, one replicate on factorial points and 4 centre points were performed. The results were analysed using the Design of Expert (DOE) software (Design-Expert, Version 7.1). The results of the shake flask experiments were confirmed in the Biostat®B bioreactor (Sartorius, B. Braun Biotech International, Germany). Exponentially growing cells were taken from cell culture flasks having a surface area of 225 cm^2 (Corning®Costar®). A Biostat®B bioreactor with a working volume of 5 litres was inoculated with 2×10^5 cells/ml. Cells were cultivated in a batch mode under standard conditions (37° C., pH 7.0, dissolved oxygen concentration (DOT) 50%) in the rich in-house standard medium supplemented with 0.75% (w/v) DMSO.
In order to study the effect of key intermediates of the metabolic pathway leading to the sialylation of the glycoproteins and consequently to the conversion of Neu5Ac to Neu5Gc, a two factorial minimal resolution IV design, which allows for the estimation of the main effects, was established. Said design allowed the determination which of the components NAcMan, NAcGlc, Man, Fru, and Gal has/have an impact on the degree of sialylation and conversion of Neu5Ac to Neu5Gc. To confirm the results from the DOE findings, the production medium was enriched with 8.75 mM NAcMan and 8.75 mM NAcGlc in combination with manganese (Mn^2+) salts in different concentrations, e.g., in the concentrations mentioned earlier in this application.
At the end of the batch culture the cells were removed. The glycoproteins were purified from the remaining harvests by means of immuno-affinity chromatography. Briefly, up to 2 mg of each of the glycoproteins per ml of the chromatographic resin (20-500 ml of the harvest) were loaded onto the column. Elution of the glycoproteins was performed with 0.1 M Na-phosphate buffer, pH 2.5. By adding 1 M Na-phosphate buffer, pH 7.5 (made up by a combination of Na2H-phosphate and NaH2-phosphate), the pH of the eluate was immediately adjusted to 7 and then stored for further analysis at below −60° C.
Sialic acids (Neu5Gc, Neu5Ac, Neu-5,7Ac2, Neu5Gc9Ac, Neu-5,9Ac2, Neu-5,8,9Ac3) were differentiated using highly sensitive RP-HPLC. Enzymatic desialylation with neuraminidase (a2-3,6,8,9-neuraminidase (Sialidase) from Arthrobacter ureafaciens, Roche, USA) released sialic acids. The released sialic acids were labelled with the fluorescent dye 1,2-diamino-4,5-methylenedioxybenzene (DMB). DMB-labelling is non-selective and therefore provides a pool of labelled sialic acid derivates in stoichiometric amounts. Derivates of the DMB-labelled sialic acids were separated on an RP-HPLC column using isocratic elution. […]

Molecule	inhibition of CMP-Neu5Ac hydroxylase (CMP-Neu5Ac hydroxylase) [%]	further results
O=C(O)CN(CCN(CC(=O)O)CC(=O)O)CC(=O)O [EDTA]	60	
rhEPO: recombinant human erythropoietin produced by Chinese hamster ovary (CHO) cells		titre of antibodies against Neu5Gc in immunised chickens (chickens): did not produce a significant titre
[Ni+3] [Ni^3+]	50	
CC(=O)N[C@@H]1C(O)O[C@H](CO)[C@@H](O)[C@@H]1O (stereo partly drawn) [NAcMan, N-acetylmannosamine]		content of Neu5Gc (Recombinant CHO cells): about 0.5%
O=S(=O)([O-])c1ccc(-c2nnc(-c3ccccn3)nc2-c2ccc(S(=O)(=O)[O-])cc2)cc1.[Na+].[Na+] [ferozzine]	25	
c1cnc2c(c1)ccc1cccnc12 [phenanthreoline]	25	
[Cu+2] [Cu^2+]	80	
[Zn+2] [Zn^2+]	30	
fetuin: glycoprotein with a content of Neu5Gc amounting to 7%		titre of antibodies against Neu5Gc in immunised chickens (chickens): a significant titre of antibodies against Neu5Gc
O=S(=O)(O)c1cc(O)c(O)c(S(=O)(=O)O)c1 [tiron]	100	
[Mn+2] [Mn^2+]	50	
[Co+2] [Co^2+]	50	
